Laboratory results as given in patent publication US7414128B2, “Crystalline R-guanidines, Arginine or (L)-Arginine (2S)-2-Ethoxy-3-{4-[2-(10H -phenoxazin-10-yl)ethoxy]phenyl}propanoate” (Dr. Reddy's Laboratories, Limited, priority 2002, dated 2008).
Where a name gives a salt, the structure may show the parent alone.

Tests used:
aqueous solubility = format: physicochemical; conditions: salt compared with the free acid
[1] = hygroscopicity at high relative humidity; format: physicochemical; conditions: even at relative humidities as high as 90 RH
stability of the salt = format: physicochemical
bioavailability = conditions: attributed to the higher aqueous solubility

Row | solubility in aqueous media (aqueous solubility) | hygroscopicity [1] | stability (stability of the salt) | bioavailability (bioavailability) | SMILES
1 | sparingly soluble |  |  |  | CCO[C@@H](Cc1ccc(OCCN2c3ccccc3Oc3ccccc32)cc1)C(=O)O [(2S)-2-Ethoxy-3-{4-[2-(10H-phenoxazin-10-yl)ethoxy]phenyl}pr] [(2S)-2-Ethoxy-3-{4-[2-(10H-phenoxazin-10-yl)ethoxy]phenyl}propanoic acid]
2 | significantly higher aqueous solubility | not hygroscopic | highly stable | good bioavailability | CCO[C@@H](Cc1ccc(OCCN2c3ccccc3Oc3ccccc32)cc1)C(=O)O [(L)-Arginine salt, (L)-Arginine (2S)-2-Ethoxy-3-{4-[2-(10H-phenoxazin-10-yl)ethoxy]phenyl}propanoate]
